# Laboratory results reported in patent US20030104507A1, “Method for detection of ATP” (priority 2001, published 2003).
# Target: T1, LucPpy (Photinus pyralis, UniProt P08659)
# T1 construct: purchased Promega E170A
# Test: Stability of reagent composition with LucPpy and detergent (RT, pH 7.0)
# Format: biochemical
# Details: for Half-life of Luminescence Activity: Common firefly luciferase (P. pyralis); for Average Relative Light Units / Percent of Luminescence Remaining: LucPpy
# Source text: The detergents used for inhibition of endogenous ATPase activity in a sample also affect activity of luciferase. […] It is ultimately the extended stability of a reagent composition, comprising an ATPase inhibitor and a luciferase enzyme, which provides a composition useful for measuring ATP, in a sample or samples, over an extended period of time.
# In this experiment, the stability of a reagent composition comprising wild type LucPpy was compared to the stability of a reagent composition comprising LucPpe2m146 at about 23° C. (room temperature). The various reagent compositions had varying detergent concentrations.
# Two solutions were created as listed below. One contained the luciferase, luciferin, MgSO4, and buffer (reagent composition). The other solution contained media plus ATP (media solution).
# 50 μg/ml enzyme (LucPpy is Promega catalog #E170A)
# Detergent (at various concentrations, see table below)
# For each reagent composition, all ingredients except the luciferase enzyme were assembled; the enzyme was then added immediately before the first luminescence reading was taken. Immediately after addition of enzyme to each reagent composition and for various timepoints thereafter, 100 μl aliquots of the reagent composition were added to wells of a 96-well microtitre luminometer plate in triplicate. To these were added 100 μl Media Solution containing the ATP. Luminescence was then immediately read on a Dynex MLX microtitreplate luminometer, 0.5 second reads per well. The average relative light unit values as well as the reaction half lives are listed below in Table I and the percent of original luminescence remaining at each timepoint is listed in Table J below. The timepoint at the top of the column indicates the time at which the first rlu measurement for the samples in that column was read. […] Times listed in Table I are the same for Table J. The values for sulfobetaine and for CTAB were generated on different days, they are presented with the control values generated in the same experiment.
# [1] = 0.02%, 0.75 min (times of Table I r32)
# [2] = 0.02%, 38 min (times of Table I r32)
# [3] = 0.02%, 70 min (times of Table I r32)
# [4] = 0.1%, 0.75 min (times of Table I r18)
# [5] = 0.5%, 0.75 min (times of Table I r5)
# [6] = 0.02%, 94 min (times of Table I r32)
# [7] = 0.02%, 122 min (times of Table I r32)
# [8] = 0.1%, 10 min (times of Table I r18)
# [9] = 0.1%, 36 min (times of Table I r18)
structure (smiles),measurement,setting,value
"CCCCCCCCCCCC[N+](C)(C)Cc1ccccc1.[Br-] [BDDABr, Benzyldimethyldodecylammonium bromide]",Half-life of Luminescence Activity,conc. 0.100,no activity
same,Half-life of Luminescence Activity,conc. 0.500,no activity
same,Average Relative Light Units,"0.02%, 0.75 min (head r32)",2894.700 rlu
same,Percent of Luminescence Remaining,[1],100.00%
same,Average Relative Light Units,"0.02%, 38 min (head r32)",0.035 rlu
same,Percent of Luminescence Remaining,[2],0.00%
same,Average Relative Light Units,"0.02%, 70 min (head r32)",0.015 rlu
same,Percent of Luminescence Remaining,[3],0.00%
same,Average Relative Light Units,"0.02%, 94 min (head r32)",0.016 rlu
same,Average Relative Light Units,"0.02%, 122 min (head r32)",0.011 rlu
same,Average Relative Light Units,"0.1%, 0.75 min (head r18)",0.007 rlu
same,Percent of Luminescence Remaining,[4],100.00%
same,Average Relative Light Units,"0.5%, 0.75 min (head r5)",0.001 rlu
same,Percent of Luminescence Remaining,[5],100.00%
"CCCCCCCCCCCCCCCC[N+](C)(C)C.[Br-] [CTAB, Cetyltrimethylammonium bromide]",Average Relative Light Units,"0.02%, 0.75 min (head r25)",1869.80 rlu
same,Percent of Luminescence Remaining,"0.02%, 0.75 min (times of Table I r25)",100.00%
same,Average Relative Light Units,"0.02%, 6 min (head r25)",79.719 rlu
same,Percent of Luminescence Remaining,"0.02%, 6 min (times of Table I r25)",0.09%
same,Percent of Luminescence Remaining,"0.02%, 16 min (times of Table I r25, r31)",0.03%
same,Average Relative Light Units,"0.02%, (16 min) (head r25)",0.099 rlu
same,Average Relative Light Units,"0.05%, 0.75 min (head r25)",1134.53 rlu
same,Percent of Luminescence Remaining,"0.05%, 0.75 min (times of Table I r25)",100.00%
same,Average Relative Light Units,"0.05%, 6 min (head r25)",0.563 rlu
same,Percent of Luminescence Remaining,"0.05%, 6 min (times of Table I r25)",0.05%
same,Average Relative Light Units,"0.05%, 20 min (head r25)",0.015 rlu
same,Percent of Luminescence Remaining,"0.05%, 20 min (times of Table I r25)",0.00%
same,Average Relative Light Units,"0.1%, 0.75 min (head r25)",94.603 rlu
same,Percent of Luminescence Remaining,"0.1%, 0.75 min (times of Table I r25)",100.00%
same,Average Relative Light Units,"0.1%, 6 min (head r25)",0.020 rlu
same,Percent of Luminescence Remaining,"0.1%, 6 min (times of Table I r25)",0.02%
"CCCCCCCCCCCC[N+](C)(C)C.[Br-] [DTAB, dodecyltrimethylammonium bromide]",Half-life of Luminescence Activity,conc. 0.500,no activity
same,Average Relative Light Units,"0.02%, 0.75 min (head r32)",4513.320 rlu
same,Percent of Luminescence Remaining,[1],100.00%
same,Average Relative Light Units,"0.02%, 38 min (head r32)",3761.940 rlu
same,Percent of Luminescence Remaining,[2],99.53%
same,Average Relative Light Units,"0.02%, 70 min (head r32)",3363.410 rlu
same,Percent of Luminescence Remaining,[3],74.52%
same,Average Relative Light Units,"0.02%, 94 min (head r32)",3229.340 rlu
same,Percent of Luminescence Remaining,[6],71.55%
same,Average Relative Light Units,"0.02%, 122 min (head r32)",3082.030 rlu
same,Percent of Luminescence Remaining,[7],68.2%
same,Average Relative Light Units,"0.1%, 0.75 min (head r18)",0.307 rlu
same,Percent of Luminescence Remaining,[4],100.00%
same,Average Relative Light Units,"0.1%, 10 min (head r18)",0.009 rlu
same,Percent of Luminescence Remaining,[8],2.93%
same,Average Relative Light Units,"0.1%, 36 min (head r18)",0.005 rlu
same,Percent of Luminescence Remaining,[9],1.55%
same,Average Relative Light Units,"0.5%, 0.75 min (head r5)",0.018 rlu
same,Percent of Luminescence Remaining,[5],100.00%
"C[C@H](CCC(=O)[O-])[C@H]1CC[C@H]2[C@@H]3CC[C@@H]4C[C@H](O)CC[C@]4(C)[C@H]3C[C@H](O)[C@]12C.[Na+] [Deoxycholate, sodium deoxycholate]",Average Relative Light Units,"0.02%, 0.75 min (head r32)",3199.250 rlu
same,Percent of Luminescence Remaining,[1],100.00%
same,Average Relative Light Units,"0.02%, 38 min (head r32)",2844.010 rlu
same,Percent of Luminescence Remaining,[2],88.90%
same,Average Relative Light Units,"0.02%, 70 min (head r32)",2626.260 rlu
same,Percent of Luminescence Remaining,[3],82.09%
same,Average Relative Light Units,"0.02%, 94 min (head r32)",2496.570 rlu
same,Percent of Luminescence Remaining,[6],78.04%
same,Average Relative Light Units,"0.02%, 122 min (head r32)",2314.910 rlu
same,Percent of Luminescence Remaining,[7],72.3%
same,Average Relative Light Units,"0.1%, 0.75 min (head r18)",19.771 rlu
same,Percent of Luminescence Remaining,[4],100.00%
same,Average Relative Light Units,"0.1%, 10 min (head r18)",0.180 rlu
same,Percent of Luminescence Remaining,[8],0.91%
same,Average Relative Light Units,"0.1%, 36 min (head r18)",0.026 rlu
same,Percent of Luminescence Remaining,[9],0.13%
same,Average Relative Light Units,"0.5%, 0.75 min (head r5)",4.801 rlu
same,Percent of Luminescence Remaining,[5],100.00%
same,Average Relative Light Units,"0.5%, 21 min (head r5)",0.012 rlu
same,Percent of Luminescence Remaining,"0.5%, 21 min (times of Table I r5)",0.25%
same,Average Relative Light Units,"0.5%, 39 min (head r5)",0.007 rlu
same,Percent of Luminescence Remaining,"0.5%, 39 min (times of Table I r5)",0.15%
"CCCCCCCCCCCCOS(=O)(=O)[O-].[Na+] [SDS, Sodium dodecyl sulfate]",Half-life of Luminescence Activity,conc. 0.050,no activity
same,Average Relative Light Units,"0.002%, 0.75 min (head r32)",640.290 rlu
same,Percent of Luminescence Remaining,"0.002%, 0.75 min (times of Table I r32)",100.00%
same,Average Relative Light Units,"0.002%, 38 min (head r32)",190.860 rlu
same,Percent of Luminescence Remaining,"0.002%, 38 min (times of Table I r32)",29.81%
same,Average Relative Light Units,"0.002%, 70 min (head r32)",84.210 rlu
same,Percent of Luminescence Remaining,"0.002%, 70 min (times of Table I r32)",13.15%
same,Average Relative Light Units,"0.002%, 94 min (head r32)",47.210 rlu
same,Percent of Luminescence Remaining,"0.002%, 94 min (times of Table I r32)",7.37%
same,Average Relative Light Units,"0.002%, 122 min (head r32)",25.630 rlu
same,Percent of Luminescence Remaining,"0.002%, 122 min (times of Table I r32)",4.0%
same,Average Relative Light Units,"0.01%, 0.75 min (head r18)",0.175 rlu
same,Average Relative Light Units,"0.01%, 0.75 min (head r32)",17.584 rlu
same,Percent of Luminescence Remaining,"0.01%, 0.75 min (times of Table I r18)",100.00%
same,Average Relative Light Units,"0.01%, 10 min (head r18)",0.016 rlu
same,Percent of Luminescence Remaining,"0.01%, 10 min (times of Table I r18)",9.14%
same,Average Relative Light Units,"0.01%, 38 min (head r32)",0.001 rlu
same,Average Relative Light Units,"0.05%, 0.75 min (head r5)",0.007 rlu
same,Percent of Luminescence Remaining,"0.05%, 0.75 min (times of Table I r5)",100.00%
"CCCCCCCCCCCC[N+](C)(C)CCCS(=O)(=O)[O-] [Sulfobetaine 3-10, N-Dodecyl-N,N-dimethyl-3-ammonio-1-propanesulfonate]",Half-life of Luminescence Activity,conc. 0.500,no activity
same,Average Relative Light Units,"0.1%, 0.75 min (head r12)",3291.41 rlu
same,Percent of Luminescence Remaining,"0.1%, 0.75 min (times of Table I r12)",100.00%
same,Average Relative Light Units,"0.1%, 7.5 min (head r12)",3178.07 rlu
same,Percent of Luminescence Remaining,"0.1%, 7.5 min (times of Table I r12)",95.8%
same,Average Relative Light Units,"0.1%, 20.5 min (head r12)",3262.17 rlu
same,Percent of Luminescence Remaining,"0.1%, 20.5 min (times of Table I r12)",99.1%
same,Average Relative Light Units,"0.1%, 59 min (head r12)",3074.49 rlu
same,Percent of Luminescence Remaining,"0.1%, 59 min (times of Table I r12)",93.4%
same,Average Relative Light Units,"0.1%, 90 min (head r12)",3066.29 rlu
same,Percent of Luminescence Remaining,"0.1%, 90 min (times of Table I r12)",93. %
same,Average Relative Light Units,"0.5%, 0.75 min (head r12)",737.788 rlu
same,Percent of Luminescence Remaining,"0.5%, 0.75 min (times of Table I r12)",100.00%
same,Average Relative Light Units,"0.5%, 7.5 min (head r12)",0.084 rlu
same,Average Relative Light Units,"0.5%, 20.5 min (head r12)",0.037 rlu
same,Average Relative Light Units,"1.0%, 0.75 min (head r12)",0.024 rlu
same,Average Relative Light Units,"1.0%, 7.5 min (head r12)",0.000 rlu
